Test results published in patent US20230053540A1, “TREATMENT OF LIVER INJURY” (Massachusetts Institute of Technology, priority 2019, published 2023).

System: hepatocytes
Experiment: Seq-Well scRNA-Seq of hepatocytes after APAP overdose (signature scores, DEG vs untreated)
Type: in vivo, mouse
Details: A96 vs untreated (UT)

Compound: CC(=O)Nc1ccc(O)cc1 [APAP, acetaminophen]
- Herpud1 avg_logFC: 0.3333
- Herpud1 pct.1: 0.9
- Hhex avg_logFC: 0.3209
- Hhex pct.1: 0.543
- Hmgcl avg_logFC: 0.353
- Hmgcl pct.1: 0.871
- Hmgcs1 avg_logFC: 0.2967
- Hmgcs1 pct.1: 0.858
- Hmgcs2 avg_logFC: 0.4234
- Hmgcs2 pct.1: 0.996
- Hnf4a avg_logFC: 0.2824
- Hnf4a pct.1: 0.858
- Hpgd avg_logFC: 0.3398
- Hpgd pct.1: 0.588
- Hpx avg_logFC: −0.264
- Hpx pct.1: 0.998
- Hrg avg_logFC: 0.4095
- Hrg pct.1: 0.923
- Hsd3b5 avg_logFC: −0.7981
- Hsd3b5 pct.1: 0.25
- Hsd17b7 avg_logFC: 0.3056
- Hsd17b7 pct.1: 0.56
- Hsd17b10 avg_logFC: 0.3092
- Hsd17b10 pct.1: 0.841
- Hspa8 avg_logFC: 0.4257
- Hspa8 pct.1: 0.905
- Igfbp4 avg_logFC: 0.4189
- Igfbp4 pct.1: 0.964
- Ildr2 avg_logFC: 0.2509
- Ildr2 pct.1: 0.356
- Insig2 avg_logFC: 0.3594
- Insig2 pct.1: 0.928
- Iqgap2 avg_logFC: 0.2645
- Iqgap2 pct.1: 0.799
- Kif1b avg_logFC: 0.3909
- Kif1b pct.1: 0.686
- Lcat avg_logFC: 0.3294
- Lcat pct.1: 0.886
- Lifr avg_logFC: −0.4875
- Lifr pct.1: 0.556
- Lipa avg_logFC: 0.4376
- Lipa pct.1: 0.791
- Lpgat1 avg_logFC: 0.275
- Lpgat1 pct.1: 0.671
- Lpin2 avg_logFC: 0.2841
- Lpin2 pct.1: 0.781
- Lrrc58 avg_logFC: 0.2641
- Lrrc58 pct.1: 0.543
- Man2a1 avg_logFC: 0.3324
- Man2a1 pct.1: 0.737
- Maob avg_logFC: 0.2722
- Maob pct.1: 0.708
- Mat1a avg_logFC: 0.9328
- Mat1a pct.1: 1
- Mettl7b avg_logFC: 0.3784
- Mettl7b pct.1: 0.949
- Mfsd2a avg_logFC: 0.3802
- Mfsd2a pct.1: 0.41
- Mia3 avg_logFC: 0.3563
- Mia3 pct.1: 0.81
- Mt1 avg_logFC: 0.638
- Mt1 pct.1: 0.839
- Mt2 avg_logFC: 0.3136
- Mt2 pct.1: 0.548
- Mtdh avg_logFC: 0.321
- Mtdh pct.1: 0.649
- Mttp avg_logFC: 0.2755
- Mttp pct.1: 0.816
- Mup3 avg_logFC: −0.4098
- Mup3 pct.1: 1
- Mup5 avg_logFC: −1.266
- Mup5 pct.1: 0.538
- Mup6 avg_logFC: −2.021
- Mup6 pct.1: 0.778
- Mup7 avg_logFC: −1.145
- Mup7 pct.1: 0.938
- Mup8 avg_logFC: −0.7871
- Mup8 pct.1: 0.067
- Mup9 avg_logFC: −1.818
- Mup9 pct.1: 0.619
- Mup11 avg_logFC: −1.559
- Mup11 pct.1: 0.905
- Mup12 avg_logFC: −0.8331
- Mup12 pct.1: 0.571
- Mup15 avg_logFC: −1.239
- Mup15 pct.1: 0.156
- Mup16 avg_logFC: −1.119
- Mup16 pct.1: 0.567
- Mup17 avg_logFC: −1.889
- Mup17 pct.1: 0.98
- Mup18 avg_logFC: −1.297
- Mup18 pct.1: 0.928
- Mup19 avg_logFC: −1.258
- Mup19 pct.1: 0.973
- Mup21 avg_logFC: −0.94
- Mup21 pct.1: 0.676
- Ncl avg_logFC: 0.2809
- Ncl pct.1: 0.731
- Ndrg2 avg_logFC: 0.3802
- Ndrg2 pct.1: 0.985
- Nfe2l1 avg_logFC: 0.2902
- Nfe2l1 pct.1: 0.508
- Nfe2l2 avg_logFC: 0.3048
- Nfe2l2 pct.1: 0.465
- Nfib avg_logFC: 0.2501
- Nfib pct.1: 0.55
- Nr1i3 avg_logFC: 0.3735
- Nr1i3 pct.1: 0.625
- Nucks1 avg_logFC: 0.2509
- Nucks1 pct.1: 0.621
- Nudt7 avg_logFC: −1.14
- Nudt7 pct.1: 0.602
- Pabpc1 avg_logFC: 0.3693
- Pabpc1 pct.1: 0.766
- Palmd avg_logFC: 0.2584
- Palmd pct.1: 0.43
- Pbld1 avg_logFC: 0.2811
- Pbld1 pct.1: 0.723
- Pcbp2 avg_logFC: 0.3113
- Pcbp2 pct.1: 0.621
- Pdia6 avg_logFC: −0.3359
- Pdia6 pct.1: 0.611
- Pdk1 avg_logFC: 0.2561
- Pdk1 pct.1: 0.438
- Pex11a avg_logFC: 0.462
- Pex11a pct.1: 0.7
- Phyh avg_logFC: 0.2541
- Phyh pct.1: 0.998
- Pigr avg_logFC: 0.2754
- Pigr pct.1: 0.957
- Plin5 avg_logFC: 0.2663
- Plin5 pct.1: 0.532
- Pltp avg_logFC: 0.2919
- Pltp pct.1: 0.237
- Pnp1a8 avg_logFC: 0.3083
- Pnp1a8 pct.1: 0.723
- Ppap2b avg_logFC: 0.2573
- Ppap2b pct.1: 0.593
- Ppara avg_logFC: 0.3055
- Ppara pct.1: 0.614
- Ppib avg_logFC: −0.3519
- Ppib pct.1: 0.696
- Ppm1a avg_logFC: 0.276
- Ppm1a pct.1: 0.571
- Ppp2r5a avg_logFC: 0.3493
- Ppp2r5a pct.1: 0.764
- Prkd3 avg_logFC: 0.305
- Prkd3 pct.1: 0.682
- Prlr avg_logFC: 0.3611
- Prlr pct.1: 0.574
- Pten avg_logFC: 0.3025
- Pten pct.1: 0.64
- Ptms avg_logFC: 0.3243
- Ptms pct.1: 0.806
- Ptp4a2 avg_logFC: 0.259
- Ptp4a2 pct.1: 0.691
- Ptplad1 avg_logFC: 0.2783
- Ptplad1 pct.1: 0.654
- Ptprd avg_logFC: 0.2719
- Ptprd pct.1: 0.582
- Pxmp4 avg_logFC: 0.2794
- Pxmp4 pct.1: 0.687
- Rdh7 avg_logFC: 0.2671
- Rdh7 pct.1: 0.995
- Rdh16 avg_logFC: 0.3716
- Rdh16 pct.1: 0.494
- Reep6 avg_logFC: 0.3193
- Reep6 pct.1: 0.891
- Retsat avg_logFC: 0.5333
- Retsat pct.1: 0.957
- Saa1 avg_logFC: −1.157
- Saa1 pct.1: 0.232
- Sc4mol avg_logFC: 0.2814
- Sc4mol pct.1: 0.781
- Sdhc avg_logFC: 0.3181
- Sdhc pct.1: 0.76
- Sec14l2 avg_logFC: 0.2724
- Sec14l2 pct.1: 0.939
- Secisbp2l avg_logFC: 0.2781
- Secisbp2l pct.1: 0.529
- Selenbp2 avg_logFC: −1.258
- Selenbp2 pct.1: 0.612
- Sepp1 avg_logFC: 0.2839
- Sepp1 pct.1: 1
- Serpina1a avg_logFC: −0.2708
- Serpina1a pct.1: 0.991
- Serpina1b avg_logFC: −0.3845
- Serpina1b pct.1: 0.996
- Serpina1c avg_logFC: −0.3176
- Serpina1c pct.1: 0.998
- Serpina1e avg_logFC: −1.134
- Serpina1e pct.1: 0.977
- Serpina3k avg_logFC: −0.3036
- Serpina3k pct.1: 1
- Serpina12 avg_logFC: −0.5326
- Serpina12 pct.1: 0.226
- Serpinf1 avg_logFC: 0.2572
- Serpinf1 pct.1: 0.934
- Sh3glb1 avg_logFC: 0.2538
- Sh3glb1 pct.1: 0.433
- Slc4a4 avg_logFC: 0.4025
- Slc4a4 pct.1: 0.609
